Source: patent publication US11053251B2, “GPR35 modulators” (Prometheus Biosciences, Inc., priority 2019, dated 2021)

Experiments:
Human GPR35 [1] = molecular target: Human GPR35 (Homo sapiens, UniProt Q9HC97); test: Beta-Arrestin Assay (Tango U2OS cells, LiveBLAzer-FRET B/G); assay type: cell-based; conditions: Human GPR35 expressing Tango U2OS cells, 5 hours treatment
Method: Human GPR35 expressing Tango U2OS cells were plated in 384-well format in clear bottom plates at a cell density of 10,000 cells/well and allowed to grow overnight. The next day, cells were treated with serially diluted test compounds for 5 hours. LiveBLAzer-FRET B/G (CCF4-AM) detection reagents were then added and cells were allowed to incubate for 2 hours before reading plates on a BioTek Cytation 5 plate reader. Zaprinast was used as a positive control for dose-response curves. In order to determine EC50 values, data were fit to a four-parameter dose-response curve.

Human GPR35 [2] = molecular target: Human GPR35 (Homo sapiens, UniProt Q9HC97, S294R); test: Alternative Beta-Arrestin Assay (JumpIn 294R Tango U2OS cells, LiveBLAzer-FRET B/G); assay type: cell-based; conditions: for EC50: Human GPR35 expressing JumpIn 294R Tango U2OS cells, 5 hours treatment
Sequence of Human GPR35 (Homo sapiens, UniProt Q9HC97, S294R) (Q9HC97 whole entry S294R): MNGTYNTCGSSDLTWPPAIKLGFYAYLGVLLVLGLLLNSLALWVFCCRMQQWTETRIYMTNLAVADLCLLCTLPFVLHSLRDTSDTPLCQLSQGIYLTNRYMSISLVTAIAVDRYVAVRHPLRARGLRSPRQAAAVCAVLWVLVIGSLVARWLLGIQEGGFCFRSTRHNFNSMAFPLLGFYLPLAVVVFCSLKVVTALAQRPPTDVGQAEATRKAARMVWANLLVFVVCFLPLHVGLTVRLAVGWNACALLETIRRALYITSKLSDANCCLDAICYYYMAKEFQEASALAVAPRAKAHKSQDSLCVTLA
Summary of the method: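 U2OS Tango cells expressing human GPR35 S294R, plated overnight, exposed to serially diluted compounds for 5 hours. β-lactamase reporter read with LiveBLAzer-FRET B/G (CCF4-AM) after 2 h; EC50 from four-parameter fit, zaprinast as positive control.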

Sequence of Human GPR35 (Homo sapiens, UniProt Q9HC97) (Q9HC97 whole entry): as the sequence (Q9HC97 whole entry S294R) above, with R294S counted along it

Row | SMILES | EC50 (Human GPR35 [1]) [µM] | EC50 (Human GPR35 [2]) [µM] | % inhibition at 50 μM (Human GPR35 [2]; at 50 μM, Table 2) [% inhibition at]
1 | CCOc1cc(C(N)=O)ccc1-c1nc2[nH]nnc2c(=O)[nH]1 [Compound 135, 3-Ethoxy-4-(7-oxo-6,7-dihydro-3H-[1,2,3]triazolo[4,5-d]pyrimidin-5-yl)benzamide] | ≤ 10 | ≤ 10 | –
2 | CCOc1cc(-c2ccccc2)ccc1-c1nc2[nH]nnc2c(=O)[nH]1 [Compound 101, 5-(3-Ethoxy-[1,1′-biphenyl]-4-yl)-3,6-dihydro-7H-[1,2,3]triazolo[4,5-d]pyrimidin-7-one] | ≤ 10 | ≤ 10 | –
3 | CCOc1cc(C(=O)Nc2ccccc2)ccc1-c1nc2[nH]nnc2c(=O)[nH]1 [Compound 134, 3-Ethoxy-4-(7-oxo-6,7-dihydro-3H-[1,2,3]triazolo[4,5-d]pyrimidin-5-yl)-N-phenylbenzamide] | ≤ 10 | ≤ 10 | –
4 | CCOc1cc(C(=O)NS(=O)(=O)N(C)C)ccc1-c1nc2[nH]nnc2c(=O)[nH]1 [Compound 152, N-(N,N-dimethylsulfamoyl)-3-ethoxy-4-(7-oxo-6,7-dihydro-3H-[1,2,3]triazolo[4,5-d]pyrimidin-5-yl)benzamide] | ≤ 10 | ≤ 10 | –
5 | CCOc1cc(NC(C)=O)ccc1-c1nc2[nH]nnc2c(=O)[nH]1 [Compound 138, N-(3-ethoxy-4-(7-oxo-6,7-dihydro-3H-[1,2,3]triazolo[4,5-d]pyrimidin-5-yl)phenyl)acetamide] | ≤ 10 | 10 to 50 | –
6 | CCOc1cc(-c2cccc(-c3nnn[nH]3)c2)ccc1-c1nc2[nH]nnc2c(=O)[nH]1 [Compound 153, 5-(3-ethoxy-3′-(1H-tetrazol-5-yl)-[1,1′-biphenyl]-4-yl)-3,6-dihydro-7H-[1,2,3]triazolo[4,5-d]pyrimidin-7-one] | ≤ 10 | ≤ 10 | –
7 | CCOc1cc(C(=O)N[C@H](CCC(=O)O)C(=O)O)ccc1-c1nc2[nH]nnc2c(=O)[nH]1 [Compound 169, (3-ethoxy-4-(7-oxo-6,7-dihydro-3H-[1,2,3]triazolo[4,5-d]pyrimidin-5-yl)benzoyl)-D-glutamic acid] | ≤ 10 | ≤ 10 | –
8 | CCOc1cc(-c2cccc(C(=O)O)c2C)ccc1-c1nc2[nH]nnc2c(=O)[nH]1 [Compound 154, 3′-ethoxy-2-methyl-4′-(7-oxo-6,7-dihydro-3H-[1,2,3]triazolo[4,5-d]pyrimidin-5-yl)-[1,1′-biphenyl]-3-carboxylic acid] | ≤ 10 | ≤ 10 | –
9 | O=C(O)Cc1ccc(-c2nc3[nH]nnc3c(=O)[nH]2)cc1 [Compound 149, 2-(4-(7-oxo-6,7-dihydro-3H-[1,2,3]triazolo[4,5-d]pyrimidin-5-yl)phenyl)acetic acid] | ≤ 10 | ≤ 10 | –
10 | CCOc1cc(B(O)O)ccc1-c1nc2[nH]nnc2c(=O)[nH]1 [Compound 151, (3-ethoxy-4-(7-oxo-6,7-dihydro-3H-[1,2,3]triazolo[4,5-d]pyrimidin-5-yl)phenyl)boronic acid] | ≤ 10 | ≤ 10 | –
11 | CCOc1cc(-c2ccc(C(=O)OC)s2)ccc1-c1nc2[nH]nnc2c(=O)[nH]1 [Compound 116, Methyl 5-(3-ethoxy-4-(7-oxo-6,7-dihydro-3H-[1,2,3]triazolo[4,5-d]pyrimidin-5-yl)phenyl)thiophene-2-carboxylate] | ≤ 10 | ≤ 10 | –
12 | CCOc1cc(-c2ccc(OC)c(C(=O)O)c2)ccc1-c1nc2[nH]nnc2c(=O)[nH]1 [Compound 182, 3′-ethoxy-4-methoxy-4′-(7-oxo-6,7-dihydro-3H-[1,2,3]triazolo[4,5-d]pyrimidin-5-yl)-[1,1′-biphenyl]-3-carboxylic acid] | ≤ 10 | ≤ 10 | –
13 | CCOc1cc(-c2ccc(CC(=O)OC)cc2)ccc1-c1nc2[nH]nnc2c(=O)[nH]1 [Compound 114, Methyl 2-(3′-ethoxy-4′-(7-oxo-6,7-dihydro-3H-[1,2,3]triazolo[4,5-d]pyrimidin-5-yl)-[1,1′-biphenyl]-4-yl)acetate] | ≤ 10 | ≤ 10 | –
14 | CCOc1cc(-c2cc(C(=O)O)cc(C(=O)O)c2)ccc1-c1nc2[nH]nnc2c(=O)[nH]1 [Compound 157, 3′-ethoxy-4′-(7-oxo-6,7-dihydro-3H-[1,2,3]triazolo[4,5-d]pyrimidin-5-yl)-[1,1′-biphenyl]-3,5-dicarboxylic acid] | ≤ 10 | ≤ 10 | –
15 | CCOc1cc(NCCC(=O)O)ccc1-c1nc2[nH]nnc2c(=O)[nH]1 [Compound 168, 3-((3-ethoxy-4-(7-oxo-6,7-dihydro-3H-[1,2,3]triazolo[4,5-d]pyrimidin-5-yl)phenyl)amino)propanoic acid] | ≤ 10 | ≤ 10 | –
16 | CCOc1cc(-c2cccc(C(=O)O)c2)ccc1-c1nc2[nH]nnc2c(=O)[nH]1 [Compound 110, 3′-Ethoxy-4′-(7-oxo-6,7-dihydro-3H-[1,2,3]triazolo[4,5-d]pyrimidin-5-yl)-[1,1′-biphenyl]-3-carboxylic acid] | ≤ 10 | ≤ 10 | –

Row | SMILES | EC50 (Human GPR35 [1]) [µM] | EC50 (Human GPR35 [2]) [µM] | % inhibition at 50 μM (Human GPR35 [2]; at 50 μM, Table 2) [% inhibition at]
17 | CCOc1cc(C(=O)N2CCCCC2C(=O)O)ccc1-c1nc2[nH]nnc2c(=O)[nH]1 (centres unmarked) [Compound 171, 1-(3-ethoxy-4-(7-oxo-6,7-dihydro-3H-[1,2,3]triazolo[4,5-d]pyrimidin-5-yl)benzoyl)piperidine-2-carboxylic acid] | > 10 | 10 to 50 | –
18 | CCOc1cc(C(=O)N2CCCC2)ccc1-c1nc2[nH]nnc2c(=O)[nH]1 [Compound 133, 5-(2-Ethoxy-4-(pyrrolidine-1-carbonyl)phenyl)-3,6-dihydro-7H-[1,2,3]triazolo[4,5-d]pyrimidin-7-one] | ≤ 10 | 10 to 50 | –
19 | CCCOc1cc(-c2cccc(C(=O)O)c2)ccc1-c1nc2[nH]nnc2c(=O)[nH]1 [Compound 128, 4′-(7-Oxo-6,7-dihydro-3H-[1,2,3]triazolo[4,5-d]pyrimidin-5-yl)-3′-propoxy-[1,1′-biphenyl]-3-carboxylic acid] | ≤ 10 | ≤ 10 | –
20 | CCOc1cc(C(=O)Nc2ccccn2)ccc1-c1nc2[nH]nnc2c(=O)[nH]1 [Compound 140, 3-ethoxy-4-(7-oxo-6,7-dihydro-3H-[1,2,3]triazolo[4,5-d]pyrimidin-5-yl)-N-(pyridin-2-yl)benzamide] | ≤ 10 | ≤ 10 | –
21 | CCOC(=O)Cn1cc(-c2ccc(-c3nc4[nH]nnc4c(=O)[nH]3)c(OCC)c2)cn1 [Compound 126, Ethyl 2-(4-(3-ethoxy-4-(7-oxo-6,7-dihydro-3H-[1,2,3]triazolo[4,5-d]pyrimidin-5-yl)phenyl)-1H-pyrazol-1-yl)acetate] | ≤ 10 | ≤ 10 | –
22 | CCOc1cc(-c2ccc(F)c(C(=O)O)c2)ccc1-c1nc2[nH]nnc2c(=O)[nH]1 [Compound 183, 3′-ethoxy-4-fluoro-4′-(7-oxo-6,7-dihydro-3H-[1,2,3]triazolo[4,5-d]pyrimidin-5-yl)-[1,1′-biphenyl]-3-carboxylic acid] | ≤ 10 | ≤ 10 | –
23 | CCOc1cc(C(=O)N(C)c2ccccc2)ccc1-c1nc2[nH]nnc2c(=O)[nH]1 [Compound 139, 3-ethoxy-N-methyl-4-(7-oxo-6,7-dihydro-3H-[1,2,3]triazolo[4,5-d]pyrimidin-5-yl)-N-phenylbenzamide] | > 10 | – | 35
24 | CCOc1cc(-c2ccccc2C(=O)OC)ccc1-c1nc2[nH]nnc2c(=O)[nH]1 [Compound 106, Methyl 3′-ethoxy-4′-(7-oxo-6,7-dihydro-3H-[1,2,3]triazolo[4,5-d]pyrimidin-5-yl)-[1,1′-biphenyl]-2-carboxylate] | ≤ 10 | ≤ 10 | –
25 | CCOc1cc(-c2ccccn2)ccc1-c1nc2[nH]nnc2c(=O)[nH]1 [Compound 105, 5-(2-Ethoxy-4-(pyridin-2-yl)phenyl)-3,6-dihydro-7H-[1,2,3]triazolo[4,5-d]pyrimidin-7-one] | ≤ 10 | ≤ 10 | –
26 | CCOc1cc(C(=O)N2CCCC(C(=O)O)C2)ccc1-c1nc2[nH]nnc2c(=O)[nH]1 (centres unmarked) [Compound 172, 1-(3-ethoxy-4-(7-oxo-6,7-dihydro-3H-[1,2,3]triazolo[4,5-d]pyrimidin-5-yl)benzoyl)piperidine-3-carboxylic acid] | ≤ 10 | 10 to 50 | –
27 | CCOc1cc(-c2ccncc2)ccc1-c1nc2[nH]nnc2c(=O)[nH]1 [Compound 104, 5-(2-Ethoxy-4-(pyridin-4-yl)phenyl)-3,6-dihydro-7H-[1,2,3]triazolo[4,5-d]pyrimidin-7-one] | ≤ 10 | ≤ 10 | –
28 | CCOc1cc(NCC(=O)O)ccc1-c1nc2[nH]nnc2c(=O)[nH]1 [Compound 170, (3-ethoxy-4-(7-oxo-6,7-dihydro-3H-[1,2,3]triazolo[4,5-d]pyrimidin-5-yl)phenyl)glycine] | ≤ 10 | ≤ 10 | –
29 | CCOc1cc(-c2ccccc2C(=O)O)ccc1-c1nc2[nH]nnc2c(=O)[nH]1 [Compound 109, 3′-Ethoxy-4′-(7-oxo-6,7-dihydro-3H-[1,2,3]triazolo[4,5-d]pyrimidin-5-yl)-[1,1′-biphenyl]-2-carboxylic acid] | ≤ 10 | 10 to 50 | –
30 | CCOc1cc(Cc2ccccc2)ccc1-c1nc2[nH]nnc2c(=O)[nH]1 [Compound 174, 5-(4-benzyl-2-ethoxyphenyl)-3,6-dihydro-7H-[1,2,3]triazolo[4,5-d]pyrimidin-7-one] | ≤ 10 | ≤ 10 | –
31 | CCOc1cc(-c2ccc(C(=O)OC)cc2)ccc1-c1nc2[nH]nnc2c(=O)[nH]1 [Compound 108, Methyl 3′-ethoxy-4′-(7-oxo-6,7-dihydro-3H-[1,2,3]triazolo[4,5-d]pyrimidin-5-yl)-[1,1′-biphenyl]-4-carboxylate] | ≤ 10 | ≤ 10 | –
